The nature of this test: Inhibition of P300 CH1 domain-mediated HIF1 transcriptional activity in human LN229-V6R cells assessed as reduction in luciferase activity incubated for 1 hr under normoxia followed by 24 hrs under hypoxia by reporter gene assay.
In the case of `CC(C)CN(Cc1ccc2c(c1)C=CC(C)(C)O2)S(=O)(=O)c1nccs1`, the half-inhibitory concentration (IC50) was 5 µM. Regarding `COc1cc(CN(C(C)C)S(=O)(=O)c2ccccn2)cc2c1OC(C)(C)C=C2`, the concentration for half-maximal inhibition (IC50) was 5 µM. For the compound `CC(C)CN(Cc1ccc2c(c1)C=CC(C)(C)O2)S(=O)(=O)c1ccccn1`, the IC50 is 5 µM.

In the case of `CC(C)CN(Cc1ccc2c(c1)C=CC(C)(C)O2)S(=O)(=O)c1nccn1C`, the IC50 turned out to be 5 µM.

For orientation: IC50 means the concentration that gives 50% inhibition.

Values taken from BindingDB's records for doi:10.1021/jm300752n (Emory University, 2012).
